# Read-outs that look alike come from different tables or passages of the source.
# Experiments:
# HCC1806 = experiment: Cell viability assay (CellTiter-Glo); assay type: cell-based, Human; details: HCC1806, 7 days, CellTiter-Glo, read-out: IC50 (nM) in cell viability assay
# PARG = PARG (Homo sapiens, UniProt Q86W56); experiment: Biochemical assay (PARG, TFMU-ADPr substrate)
# [1] = test system: Human breast squamous carcinoma cells HCC1806; experiment: Cell function assay (In-Cell Western, PAR/pADPr after MMS); assay type: cell-based
# Experimental: 2. Cell Function Assay (In-Cell Western)
# • 1) Human breast squamous carcinoma cells HCC1806 (ATCC) were seeded to the 384-well plate (Corning, #3764) at 20,000 cells/well, incubated for 24 h in a CO2 (5%) incubator at 37° C. to allow for complete adherence of the cells; • 2) 120 nL compounds or DMSO were added to the 384-well plate by Echo 550 (LABCYTE, #550) (final concentrations of compounds: 30000 nM, 10000 nM, 3000 nM, 1000 nM, 300 nM, 100 nM, 30 nM, 10 nM, 3 nM, 1 nM, 0 nM), and then the cells were incubated for 1 h in a CO2 (5%) incubator at 37° C.; • 3) 40 nL MMS (methyl mesylate, Sigma, #129925)(final concentration: 0.5 mM) was added to the plate by Echo 550, and the cells were treated for 1 h in a CO2 (5%) incubator at 37° C.
# [2] = 4 nM PARG, 66.2 uM TFMU-ADPr, 3 min at room temperature
# [3] = HCC1806, In-Cell Western, MMS treatment, read-out: IC50 (nM) in cell function assay
# [4] = HCC1806, compound 1 h then 0.5 mM MMS 1 h, PAR/pADPr antibody, In-Cell Western, read-out: IC50 (nM) in cell function assay
# Sequence of PARG (Q86W56 whole entry): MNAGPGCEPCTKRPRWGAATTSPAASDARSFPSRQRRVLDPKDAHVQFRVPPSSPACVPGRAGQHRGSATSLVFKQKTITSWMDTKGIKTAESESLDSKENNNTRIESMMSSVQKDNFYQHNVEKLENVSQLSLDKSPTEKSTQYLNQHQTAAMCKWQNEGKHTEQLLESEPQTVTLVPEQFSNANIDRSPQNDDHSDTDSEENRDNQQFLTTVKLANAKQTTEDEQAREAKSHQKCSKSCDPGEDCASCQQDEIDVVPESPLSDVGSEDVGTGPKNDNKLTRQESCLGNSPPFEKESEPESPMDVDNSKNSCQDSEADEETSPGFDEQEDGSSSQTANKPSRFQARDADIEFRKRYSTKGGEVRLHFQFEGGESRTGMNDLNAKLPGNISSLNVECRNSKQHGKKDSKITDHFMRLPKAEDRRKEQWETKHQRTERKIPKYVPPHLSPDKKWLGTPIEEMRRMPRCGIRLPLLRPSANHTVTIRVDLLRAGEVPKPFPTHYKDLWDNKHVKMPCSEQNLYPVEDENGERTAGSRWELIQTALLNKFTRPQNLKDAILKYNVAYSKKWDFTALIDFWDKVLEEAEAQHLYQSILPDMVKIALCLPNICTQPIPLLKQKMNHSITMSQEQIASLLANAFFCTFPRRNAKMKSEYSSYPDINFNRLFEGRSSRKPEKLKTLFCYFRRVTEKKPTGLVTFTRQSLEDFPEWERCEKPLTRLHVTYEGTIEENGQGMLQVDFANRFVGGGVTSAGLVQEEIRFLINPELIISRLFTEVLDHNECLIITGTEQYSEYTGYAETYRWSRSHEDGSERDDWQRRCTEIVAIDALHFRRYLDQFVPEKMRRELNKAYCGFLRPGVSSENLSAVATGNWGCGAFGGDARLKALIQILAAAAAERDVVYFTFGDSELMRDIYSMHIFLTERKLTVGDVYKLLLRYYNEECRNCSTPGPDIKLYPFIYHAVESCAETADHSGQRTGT
SMILES,IC50 (HCC1806) [nM],"IC50 (HCC1806; Homo sapiens, HCC1806, 168 h) [nM]",IC50 (PARG; [2]) [nM],"IC50 (PARG; PARG, TFMU-ADPr substrate) [nM]","IC50 [1, 3] [nM]","IC50 [1, 4] [nM]","IC50 ([1]; HCC1806, 1 h, read-out: IC50 (nM) in cell function assay) [nM]","IC50 ([1]; HCC1806, read-out: IC50 (nM) in cell function assay) [nM]"
"CC(C)C(=O)N1CCN(c2cc(S(=O)(=O)NC3CC3)cn3c(-c4nnc(C(F)F)s4)ncc23)CC1 [Example 69, N-cyclopropyl-3-(5-(difluoromethyl)-1,3,4-thiadiazol-2-yl)-8-(4-isobutyrylpiperazin-1-yl)imidazo[1,5-a]pyridine-6-sulfonamide]",432,< 500,< 100,20,9.05,< 100,,
"C[C@@H]1CN(c2cc(S(=O)(=O)NC3(C#N)CC3)cn3c(-c4nnc(C(F)F)s4)ncc23)CCN1C(=O)C(C)(C)F [Example 94, (R)-N-(1-cyanocyclopropyl)-3-(5-(difluoromethyl)-1,3,4-thiadiazol-2-yl)-8-(4-(2-fluoro-2-methylpropanoyl)-3-methylpiperazin-1-yl)imidazo[1,5-a]pyridine-6-sulfonamide]",350,< 500,< 100,9.55,23.4,< 100,,
"[2H]C1([2H])CCC1([2H])NS(=O)(=O)c1cc(N2CCN(C(=O)C(C)C)CC2)c2cnc(-c3nnc(C(F)F)s3)n2c1 (centres unmarked) [Example 57, N-(cyclobutyl-1,2,2-d3)-3-(5-(difluoromethyl)-1,3,4-thiadiazol-2-yl)-8-(4-isobutyrylpiperazin-1-yl)imidazo[1,5-a]pyridine-6-sulfonamide]",,> 30000,< 100,21.2,1110,> 1000,,
"CC(C)C(=O)N1CCN(c2cc(S(=O)(=O)NC3(C)CC3)cn3c(-c4nnc(C(F)F)s4)ncc23)CC1 [Example 34, 3-(5-(difluoromethyl)-1,3,4-thiadiazol-2-yl)-8-(4-isobutyrylpiperazin-1-yl)-N-(1-methylcyclopropyl)imidazo[1,5-a]pyridine-6-sulfonamide]",,< 500,< 100,1.22,5.77,< 100,,
"CC(C)C(=O)N1CCN(c2cc(S(=O)(=O)NC3(C(F)F)CC3)cn3c(-c4nnc(C(F)F)s4)ncc23)CC1 [Example 33, 3-(5-(difluoromethyl)-1,3,4-thiadiazol-2-yl)-N-(1-(difluoromethyl)cyclopropyl)-8-(4-isobutyrylpiperazin-1-yl)imidazo[1,5-a]pyridine-6-sulfonamide]",,,< 100,6.52,155,100 to 500,,
"N#CC1(NS(=O)(=O)c2cc(N3CCC4(CC3)COC4)c3cnc(-c4nnc(C(F)F)s4)n3c2)CC1 [Example 39, N-(1-cyanocyclopropyl)-3-(5-(difluoromethyl)-1,3,4-thiadiazol-2-yl)-8-(2-oxa-7-azaspiro[3.5]nonan-7-yl)imidazo[1,5-a]pyridine-6-sulfonamide]",,,< 100,2.72,13.2,< 100,,
"CC(C)C(=O)N1CCN(c2cc(S(=O)(=O)NC3(C#N)CC3)cn3c(-c4nnc(C(F)F)s4)ncc23)C[C@@H]1C [Example 85, (S)-N-(1-cyanocyclopropyl)-3-(5-(difluoromethyl)-1,3,4-thiadiazol-2-yl)-8-(4-isobutyryl-3-methylpiperazin-1-yl)imidazo[1,5-a]pyridine-6-sulfonamide]",,,< 100,15.2,13.7,< 100,,
"[2H]C([2H])([2H])C1(NS(=O)(=O)c2cc(N3CCN(C(=O)C(C)C)CC3)c3cnc(-c4nnc(C(F)F)s4)n3c2)CC1 [Example 161, 3-(5-(difluoromethyl)-1,3,4-thiadiazol-2-yl)-8-(4-isobutyrylpiperazin-1-yl)-N-(1-(methyl-d3)cyclopropyl)imidazo[1,5-a]pyridine-6-sulfonamide]",,,< 100,0.88,,,< 100,1.02
"N#CC1(NS(=O)(=O)c2cc(N3CCOCC3)c3cnc(-c4nnc(C(F)F)s4)n3c2)CC1 [Example 67, N-(1-cyanocyclopropyl)-3-(5-(difluoromethyl)-1,3,4-thiadiazol-2-yl)-8-morpholinoimidazo[1,5-a]pyridine-6-sulfonamide]",,,< 100,8.83,40.1,< 100,,
"CC1(O)CC2(CCN(c3cc(S(=O)(=O)NC4(C#N)CC4)cn4c(-c5nnc(C(F)F)s5)ncc34)CC2)C1 [Example 53, N-(1-cyanocyclopropyl)-3-(5-(difluoromethyl)-1,3,4-thiadiazol-2-yl)-8-(2-hydroxy-2-methyl-7-azaspiro[3.5]nonan-7-yl)imidazo[1,5-a]pyridine-6-sulfonamide]",,,< 100,2.37,145,100 to 500,,
"O=S(=O)(NC1(CF)CC1)c1cc(N2CC3(COCCO3)C2)c2nnc(-c3nnc(C(F)F)s3)n2c1 [Example 113, 3-(5-(difluoromethyl)-1,3,4-thiadiazol-2-yl)-N-(1-(fluoromethyl)cyclopropyl)-8-(5,8-dioxa-2-azaspiro[3.5]nonan-2-yl)-[1,2,4]triazolo[4,3-a]pyridine-6-sulfonamide]",,,< 100,5.2,9,< 100,,

# Further lines, with some results ahead:
IC50 (HCC1806) [nM],"IC50 (HCC1806; Homo sapiens, HCC1806, 168 h) [nM]",IC50 (PARG; [2]) [nM],"IC50 (PARG; PARG, TFMU-ADPr substrate) [nM]","IC50 [1, 3] [nM]","IC50 [1, 4] [nM]",SMILES,"IC50 ([1]; HCC1806, 1 h, read-out: IC50 (nM) in cell function assay) [nM]","IC50 ([1]; HCC1806, read-out: IC50 (nM) in cell function assay) [nM]"
8810,5000 to 30000,< 100,2.04,8510,> 1000,"CC(C)C(=O)N1CCN(c2cc(S(=O)(=O)NC3(C#N)COC3)cn3c(-c4nnc(C(F)F)s4)ncc23)CC1 [Example 148, N-(3-cyanooxetan-3-yl)-3-(5-(difluoromethyl)-1,3,4-thiadiazol-2-yl)-8-(4-isobutyrylpiperazin-1-yl)imidazo[1,5-a]pyridine-6-sulfonamide]",,
462,500 to 5000,< 100,1.57,17.5,< 100,"CC1(NS(=O)(=O)c2cc(N3CCC(CO)CC3)c3nnc(-c4nnc(C(F)F)s4)n3c2)CC1 [Example 114, 3-(5-(difluoromethyl)-1,3,4-thiadiazol-2-yl)-8-(4-(hydroxymethyl)piperidin-1-yl)-N-(1-methylcyclopropyl)-[1,2,4]triazolo[4,3-a]pyridine-6-sulfonamide]",,
280,< 500,< 100,6.92,12,< 100,"[2H]c1nc(-c2nnc(C(F)F)s2)n2cc(S(=O)(=O)NC3(C#N)CC3)cc(N3CCN(C(=O)C4(C)CC4)[C@H](C)C3)c12 [Example 156, (R)—N-(1-cyanocyclopropyl)-3-(5-(difluoromethyl)-1,3,4-thiadiazol-2-yl)-8-(3-methyl-4-(1-methylcyclopropane-1-carbonyl)piperazin-1-yl)imidazo[1,5-a]pyridine-6-sulfonamide-1-d]",,
352,500 to 5000,< 100,5.34,2.99,< 100,"[2H]c1nc(-c2nnc(C(F)F)s2)n2cc(S(=O)(=O)NC3(CF)COC3)cc(N3CCN(C(=O)C(C)C)CC3)c12 [Example 153, 3-(5-(difluoromethyl)-1,3,4-thiadiazol-2-yl)-N-(3-(fluoromethyl)oxetan-3-yl)-8-(4-isobutyrylpiperazin-1-yl)imidazo[1,5-a]pyridine-6-sulfonamide-1-d]",,
,,< 100,1.88,8.51,< 100,"O=S(=O)(NC1(CF)CC1)c1cc(N2CCC(O)(C(F)(F)F)CC2)c2nnc(-c3nnc(C(F)F)s3)n2c1 [Example 115, 3-(5-(difluoromethyl)-1,3,4-thiadiazol-2-yl)-N-(1-(fluoromethyl)cyclopropyl)-8-(4-hydroxy-4-(trifluoromethyl)piperidin-1-yl)-[1,2,4]triazolo[4,3-a]pyridine-6-sulfonamide]",,
,,< 100,6.23,57.7,< 100,"CC(C)C(=O)N1CCN(c2cc(S(=O)(=O)NC3(C(F)F)COC3)cn3c(-c4nnc(C(F)F)s4)ncc23)CC1 [Example 149, 3-(5-(difluoromethyl)-1,3,4-thiadiazol-2-yl)-N-(3-(difluoromethyl)oxetan-3-yl)-8-(4-isobutyrylpiperazin-1-yl)imidazo[1,5-a]pyridine-6-sulfonamide]",,
,,< 100,3.16,4.58,< 100,"CC(C)C(=O)N1CCN(c2cc(S(=O)(=O)NC3(C#N)CC3)cn3c(-c4nnc(C(F)F)s4)nc(Cl)c23)CC1 [Example 122, 1-chloro-N-(1-cyanocyclopropyl)-3-(5-(difluoromethyl)-1,3,4-thiadiazol-2-yl)-8-(4-isobutyrylpiperazin-1-yl)imidazo[1,5-a]pyridine-6-sulfonamide]",,

# Source: patent publication US20260258035A1, “FIVE-MEMBERED AND SIX-MEMBERED NITROGEN-CONTAINING COMPOUND, AND INTERMEDIATE, PREPARATION METHOD AND USE THEREOF” (HANGZHOU SYNRX THERAPEUTICS BIOMEDICAL TECHNOLOGY CO., LTD., priority 2022, published 2026)
